Results as given in ChEMBL document CHEMBL1201862, “PubChem BioAssay data set” (2004).
“And” between values parts separate entries of the source, which are not always exact repeats. Identical values can stand only once.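 Where inhibition never reached the appropriate level, the endpoint shown equals the highest concentration tested. Otherwise, values were interpolated linearly from a five-concentration, 48-hour dose response in 96-well plates. Abbreviation: GI50, concentration required for 50% inhibition of growth.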 The source made the active and inactive calls. Cut-off read from the data, not from the text of the source: active = GI50 up to about 1.1 µM and inactive = higher.

Columns and labels:
Experiment in all cases: inhibition of tumour cell growth, NCI panel, 48 h
786-0 = test system: 786-0
BT-549 = test system: BT-549
CCRF-CEM = test system: CCRF-CEM
HCT-116 = test system: HCT-116
HL-60 = test system: HL-60
HT-29 = test system: HT-29
Hs-578T = test system: Hs-578T
IGROV-1 = test system: IGROV-1
K562 = test system: K562
KM12 = test system: KM12
LOX IMVI = test system: LOX IMVI
MDA-MB-435 = test system: MDA-MB-435
MDA-N = test system: MDA-N
MOLT-4 = test system: MOLT-4
NCI-H460 = test system: NCI-H460
NCI-H522 = test system: NCI-H522
OVCAR-8 = test system: OVCAR-8
RPMI-8226 = test system: RPMI-8226
RXF 393 = test system: RXF 393
SF-268 = test system: SF-268
SF-295 = test system: SF-295
SK-MEL-5 = test system: SK-MEL-5
SN12C = test system: SN12C
SNB-75 = test system: SNB-75
SW-620 = test system: SW-620
A498 = test system: A498
A549 = test system: A549
ACHN = test system: ACHN
CAKI-1 = test system: CAKI-1
COLO 205 = test system: COLO 205
EKVX = test system: EKVX
HCC 2998 = test system: HCC 2998
HCT-15 = test system: HCT-15
HOP-62 = test system: HOP-62
HOP-92 = test system: HOP-92
M14 = test system: M14
MCF7 = test system: MCF7
MDA-MB-231 = test system: MDA-MB-231
Malme-3M = test system: Malme-3M
NCI-H226 = test system: NCI-H226
NCI/ADR-RES = test system: NCI/ADR-RES
OVCAR-4 = test system: OVCAR-4
OVCAR-5 = test system: OVCAR-5
PC-3 = test system: PC-3
SF-539 = test system: SF-539
SK-MEL-28 = test system: SK-MEL-28
SK-MEL-2 = test system: SK-MEL-2
SK-OV-3 = test system: SK-OV-3
SNB-19 = test system: SNB-19
TK-10 = test system: TK-10
U-251 = test system: U-251
UACC-257 = test system: UACC-257
UACC-62 = test system: UACC-62
DU-145 = test system: DU-145
NCI-H23 = test system: NCI-H23
OVCAR-3 = test system: OVCAR-3
SR = test system: SR
T47D = test system: T47D
UO-31 = test system: UO-31

In the case of `CC(=O)OCC1OC(OC(C)(C)CC/C=C(\C)[C@@H]2C/C=C(\C)CC/C=C(\C)CC2)C(O)C(O)C1OC(C)=O` (stereo partly drawn), the GI50 (786-0) was 39.4 µM (inactive) and 23.6 µM (inactive), the GI50 (BT-549) was 33.9 µM (inactive) and 19.7 µM (inactive) and the GI50 (CCRF-CEM) was 22.5 µM (inactive) and 14 µM (inactive). For the same molecule, the GI50 (HCT-116) was 25 µM (inactive) and 22.9 µM (inactive), the GI50 (HL-60) was 28.5 µM (inactive) and the GI50 (HT-29) was 24.5 µM (inactive) and 14.9 µM (inactive). For the same molecule, the GI50 (Hs-578T) was 0.3 µM (active), the GI50 (IGROV-1) was 17.5 µM (inactive) and 21.6 µM (inactive) and the GI50 (K562) was 28.7 µM (inactive) and 22.4 µM (inactive). The GI50 (KM12) was 26.7 µM (inactive) and 19 µM (inactive), the GI50 (LOX IMVI) was 18.5 µM (inactive) and 21.3 µM (inactive) and the GI50 (MDA-MB-435) was 32.8 µM (inactive) and 20.2 µM (inactive). For the same molecule, the GI50 (MDA-N) was 24.7 µM (inactive) and 19.7 µM (inactive), the GI50 (MOLT-4) was 17 µM (inactive) and > 10 µM (inactive) and the GI50 (NCI-H460) was 17.9 µM (inactive) and 23.2 µM (inactive). For the same molecule, the GI50 (NCI-H522) was 18.9 µM (inactive) and 11.3 µM (inactive), the GI50 (OVCAR-8) was 20.6 µM (inactive) and 28.6 µM (inactive) and the GI50 (RPMI-8226) was 25.5 µM (inactive) and 19.7 µM (inactive). The GI50 (RXF 393) was > 100 µM (inactive), the GI50 (SF-268) was 27 µM (inactive) and 19.8 µM (inactive) and the GI50 (SF-295) was 22.9 µM (inactive) and 42.3 µM (inactive). For the same molecule, the GI50 (SK-MEL-5) was 17.5 µM (inactive) and 30.1 µM (inactive), the GI50 (SN12C) was 32 µM (inactive) and 20 µM (inactive) and the GI50 (SNB-75) was 17.4 µM (inactive) and 17.1 µM (inactive). The GI50 (SW-620) was 26.1 µM (inactive) and 24.2 µM (inactive).
With `CN(C)c1ccc(-c2c(C#N)c(O)n(NS(=O)(=O)c3ccccc3)c(=O)c2C#N)cc1` the GI50 (786-0) was > 100 µM (inactive), the GI50 (A498) was > 100 µM (inactive) and the GI50 (A549) was > 100 µM (inactive). The GI50 (ACHN) was > 100 µM (inactive), the GI50 (BT-549) was > 100 µM (inactive) and the GI50 (CAKI-1) was > 100 µM (inactive). For the same molecule, the GI50 (CCRF-CEM) was > 100 µM (inactive), the GI50 (COLO 205) was > 100 µM (inactive) and the GI50 (EKVX) was > 100 µM (inactive). The GI50 (HCC 2998) was > 100 µM (inactive), the GI50 (HCT-116) was > 100 µM (inactive) and the GI50 (HCT-15) was > 100 µM. For the same molecule, the GI50 (HL-60) was > 100 µM (inactive), the GI50 (HOP-62) was > 100 µM (inactive) and the GI50 (HOP-92) was > 100 µM (inactive). The GI50 (HT-29) was > 100 µM (inactive), the GI50 (Hs-578T) was > 100 µM (inactive) and the GI50 (IGROV-1) was > 100 µM (inactive). The GI50 (K562) was > 100 µM (inactive), the GI50 (KM12) was > 100 µM (inactive) and the GI50 (LOX IMVI) was > 100 µM (inactive). The GI50 (M14) was 0.643 µM (active), the GI50 (MCF7) was > 100 µM (inactive) and the GI50 (MDA-MB-231) was > 100 µM (inactive). For the same molecule, the GI50 (MDA-MB-435) was > 100 µM (inactive), the GI50 (MDA-N) was > 100 µM (inactive) and the GI50 (MOLT-4) was > 100 µM (inactive). For the same molecule, the GI50 (Malme-3M) was > 100 µM (inactive), the GI50 (NCI-H226) was > 100 µM (inactive) and the GI50 (NCI-H460) was > 100 µM (inactive). For the same molecule, the GI50 (NCI-H522) was > 100 µM (inactive), the GI50 (NCI/ADR-RES) was > 100 µM (inactive) and the GI50 (OVCAR-4) was > 100 µM (inactive). The GI50 (OVCAR-5) was 0.912 µM (active), the GI50 (OVCAR-8) was > 100 µM (inactive) and the GI50 (PC-3) was > 100 µM (inactive). The GI50 (RPMI-8226) was > 100 µM (inactive), the GI50 (RXF 393) was > 100 µM (inactive) and the GI50 (SF-268) was > 100 µM (inactive). For the same molecule, the GI50 (SF-539) was > 100 µM (inactive), the GI50 (SK-MEL-28) was > 100 µM (inactive) and the GI50 (SK-MEL-2) was > 100 µM (inactive). The GI50 (SK-MEL-5) was > 100 µM (inactive), the GI50 (SK-OV-3) was 0.377 µM (active) and the GI50 (SN12C) was > 100 µM (inactive). For the same molecule, the GI50 (SNB-19) was > 100 µM (inactive), the GI50 (SNB-75) was > 100 µM (inactive) and the GI50 (SW-620) was > 100 µM (inactive). The GI50 (TK-10) was > 100 µM (inactive), the GI50 (U-251) was > 100 µM (inactive) and the GI50 (UACC-257) was > 100 µM (inactive). The GI50 (UACC-62) was > 100 µM (inactive).
`CCCCCCCCCC[C@@H](O)[C@H]1CC[C@@H]([C@H]2CC[C@H]([C@H](O)CCCCCCCCCC[C@@H]3CC(CC(C)=O)C(=O)O3)O2)O1` (stereo partly drawn) was tested, and the GI50 (786-0) was 25.8 µM (inactive), the GI50 (A498) was 38 µM (inactive) and the GI50 (A549) was 2.16 µM (inactive). For the same molecule, the GI50 (ACHN) was 1.17 µM (inactive), the GI50 (BT-549) was 2.48 µM (inactive) and the GI50 (CAKI-1) was 31 µM (inactive). For the same molecule, the GI50 (CCRF-CEM) was 12.9 µM (inactive), the GI50 (COLO 205) was 1.52 µM (inactive) and the GI50 (DU-145) was 9.27 µM (inactive). For the same molecule, the GI50 (EKVX) was 0.372 µM (active), the GI50 (HCC 2998) was 19.1 µM (inactive) and the GI50 (HCT-116) was 2.68 µM (inactive). For the same molecule, the GI50 (HCT-15) was 5.12 µM, the GI50 (HOP-62) was 7.55 µM (inactive) and the GI50 (HOP-92) was 17 µM (inactive). For the same molecule, the GI50 (HT-29) was 3.42 µM (inactive), the GI50 (Hs-578T) was 1.04 µM (active) and the GI50 (IGROV-1) was 8.28 µM (inactive). For the same molecule, the GI50 (K562) was 1.84 µM (inactive), the GI50 (KM12) was 2.52 µM (inactive) and the GI50 (LOX IMVI) was 1.23 µM (inactive). The GI50 (M14) was 6.43 µM (inactive), the GI50 (MCF7) was 1.31 µM (inactive) and the GI50 (MDA-MB-231) was 3.64 µM (inactive). The GI50 (MDA-MB-435) was 32.4 µM (inactive), the GI50 (MOLT-4) was 4.13 µM (inactive) and the GI50 (Malme-3M) was 15.1 µM (inactive). The GI50 (NCI-H226) was 1 µM (active), the GI50 (NCI-H23) was 0.00223 µM (active) and the GI50 (NCI-H460) was 0.147 µM (active). The GI50 (NCI-H522) was 12.8 µM (inactive), the GI50 (NCI/ADR-RES) was 0.167 µM (active) and the GI50 (OVCAR-3) was 3.75 µM (inactive). For the same molecule, the GI50 (OVCAR-4) was 18.9 µM (inactive), the GI50 (OVCAR-5) was 48.1 µM (inactive) and the GI50 (OVCAR-8) was 2.34 µM (inactive). The GI50 (PC-3) was 4.05 µM (inactive), the GI50 (RPMI-8226) was 2.39 µM (inactive) and the GI50 (RXF 393) was 4.99 µM (inactive). For the same molecule, the GI50 (SF-268) was 2.1 µM (inactive), the GI50 (SF-295) was 1.77 µM (inactive) and the GI50 (SF-539) was 7.05 µM (inactive). The GI50 (SK-MEL-28) was 3.46 µM (inactive), the GI50 (SK-MEL-2) was 4.94 µM (inactive) and the GI50 (SK-MEL-5) was 0.01 µM (active). For the same molecule, the GI50 (SN12C) was 2.17 µM (inactive), the GI50 (SNB-19) was 2.9 µM (inactive) and the GI50 (SNB-75) was 1.42 µM (inactive). For the same molecule, the GI50 (SR) was 0.59 µM (active), the GI50 (SW-620) was 4.4 µM (inactive) and the GI50 (T47D) was 1.7 µM (inactive). For the same molecule, the GI50 (TK-10) was 4.73 µM (inactive), the GI50 (U-251) was 2.65 µM (inactive) and the GI50 (UACC-257) was 2.14 µM (inactive). The GI50 (UACC-62) was 3.92 µM (inactive) and the GI50 (UO-31) was 2.49 µM (inactive).
